Where two headings read alike, the source gives them in different places.

Holding throughout (format): biochemical
Test [1] concerns the target T1, human macrophage elastase (HME/hMMP-12) (Homo sapiens, UniProt P39900).
T1 construct: 0.5 nM HME; purchased R&D Systems 917-MP
In words: In vitro HME inhibition test (standard or high-sensitivity). The procedure: The potency of the compounds according to the invention with respect to HME (MMP-12) is determined in an in vitro inhibition test. The HME-mediated amidolytic cleavage of a suitable peptide substrate leads to an increase in fluorescent light therein. The signal intensity of the fluorescent light is directly proportional to the enzyme activity. The active concentration of a test compound at which half the enzyme is inhibited (50% signal intensity of the fluorescent light) is reported as the IC50 value.
In a 384 hole microtiter plate, in a total test volume of 41 μl, the test buffer (0.1 M HEPES pH 7.4, 0.15 M NaCl, 0.03 M CaCl2, 0.004 mM ZnCl2, 0.02 M EDTA, 0.005% Brij®), the enzyme (0.5 nM HME; from R&D Systems, 917-MP, autocatalytic activation according to the manufacturer's instructions) and the intramolecularly quenched substrate [5 μM Mca-Pro-Leu-Gly-Leu-Glu-Glu-Ala-Dap(Dnp)-NH2; Bachem, M-2670] are incubated in the absence and presence of the test substance (as a solution in DMSO) at 37° C. for two hours. The fluorescence intensity of the test mixtures is measured (excitation […], emission 393 nm). The IC50 values are ascertained by plotting the fluorescent light intensity against the active ingredient concentration.
In this case, an enzyme concentration ten times lower is used (final concentration, for example, 0.05 nM) in order to achieve an elevated test sensitivity. The incubation period chosen for the test is correspondingly longer (for example 16 hours).

A further test concerns the target T2, MMP-10 (Homo sapiens, UniProt P09238).
T2 construct: purchased R&D Systems 910-MP
In words: In vitro MMP-10 inhibition test. From the text: (§1) The MMP-mediated amidolytic cleavage of a suitable peptide substrate leads to an increase in fluorescent light here too. The signal intensity of the fluorescent light is directly proportional to the enzyme activity. The active concentration of a test compound at which half the enzyme is inhibited (50% signal intensity of the fluorescent light) is reported as the […].
Recombinant MMP-10 (from R&D Systems, 910-MP) is chemically activated in accordance with the manufacturer's instructions using APMA. 1 μl of the test compound to be analysed (as a solution in DMSO, suitable concentrations, for example, 1 nM to 30 μM) is pipetted into 24 μl of activated enzyme (final concentration, for example, 2 nM) in reaction buffer (50 mM Tris/HCl pH 7.5, 10 mM CaCl2, 150 mM NaCl, 0.05% Brij®-35) in a white 384-hole microtiter plate (MTP). The enzymatic reaction is started by adding the intramolecularly quenched Mca-Arg-Pro-Lys-Pro-Val-Glu-Nval-Trp-Arg-Lys(Dnp)-NH2 substrate (final concentration, for example, 10 μM; R&D Systems, ES-002), so as to result in a total test volume of 50 μl. The course of the MMP-10 reaction is measured by measuring the fluorescence intensity (excitation 320 nm, emission 410 nm) over a suitable period of time (for example over 120 min at a temperature of 32° C.).

The target in another test is T3, MMP-16 (Homo sapiens, UniProt P51512).
T3 construct: purchased R&D Systems 1785-MP
Description: In vitro MMP-16 inhibition test.
Excerpt: as §1
Recombinant MMP-16 (from R&D Systems, 1785-MP) is enzymatically activated in accordance with the manufacturer's instructions using recombinant furin (from R&D Systems, 1503-SE). 1 μl of the test compound to be analysed (as a solution in DMSO, suitable concentrations e.g. 1 nM to 30 μM) is pipetted into 24 μl of activated enzyme (final concentration e.g. 1 nM) in reaction buffer (50 mM Tris/HCl pH 7.5, 10 mM CaCl2, 150 mM NaCl, 0.05% Brij®-35) in a white 384-hole microtiter plate (MTP). The enzymatic reaction is started by adding the intramolecularly quenched Mca-Lys-Pro-Leu-Gly-Leu-Dpa(Dnp)-Ala-Arg-NH2 substrate (final concentration, for example, 5 μM; R&D Systems, ES-010), so as to result in a total test volume of 50 μl. The course of the MMP-16 reaction is measured by measuring the fluorescence intensity (excitation 320 nm, emission 410 nm) over a suitable period of time (for example over 120 min at a temperature of 32° C.).

The target in a further test is T4, mouse MMP-7 (Mus musculus, UniProt Q10738).
T4 construct: purchased R&D Systems 2967-MP
T4 sequence (Q10738 95-264): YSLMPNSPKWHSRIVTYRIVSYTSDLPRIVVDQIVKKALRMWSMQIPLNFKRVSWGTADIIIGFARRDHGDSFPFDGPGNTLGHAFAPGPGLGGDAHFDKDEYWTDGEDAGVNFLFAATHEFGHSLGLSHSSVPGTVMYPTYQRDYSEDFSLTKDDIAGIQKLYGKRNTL
Description: In vitro mouse MMP-7 inhibition test.
Excerpt: as §1
Recombinant mouse MMP-7 (from R&D Systems, 2967-MP) is chemically activated in accordance with the manufacturer's instructions using APMA. 1 μl of the test compound to be analysed (as a solution in DMSO, suitable concentrations, for example, 1 nM to 30 μM) is pipetted into 24 μl of activated enzyme (final concentration, for example, 0.5 nM) in reaction buffer (50 mM Tris/HCl pH 7.5, 10 mM CaCl2, 150 mM NaCl, 0.05% Brij®-35) in a white 384-hole microtiter plate (MTP). The enzymatic reaction is started by adding the intramolecularly quenched Mca-Lys-Pro-Leu-Gly-Leu-Dpa(Dnp)-Ala-Arg-NH2 substrate (final concentration, for example, 5 μM; R&D Systems, ES-010), so as to result in a total test volume of 50 μl. The course of the MMP-7 reaction is measured by measuring the fluorescence intensity (excitation 320 nm, emission 410 nm) over a suitable period of time (for example over 120 min at a temperature of 32° C.).

The mark [2] stands for this setting: absence of serum albumin (BSA), read-out: HME IC50 (−BSA).
Setting [3] is: standard or high-sensitivity HME inhibition test, read-out: HME/hMMP-12 IC50.

T2 sequence (P09238 99-476): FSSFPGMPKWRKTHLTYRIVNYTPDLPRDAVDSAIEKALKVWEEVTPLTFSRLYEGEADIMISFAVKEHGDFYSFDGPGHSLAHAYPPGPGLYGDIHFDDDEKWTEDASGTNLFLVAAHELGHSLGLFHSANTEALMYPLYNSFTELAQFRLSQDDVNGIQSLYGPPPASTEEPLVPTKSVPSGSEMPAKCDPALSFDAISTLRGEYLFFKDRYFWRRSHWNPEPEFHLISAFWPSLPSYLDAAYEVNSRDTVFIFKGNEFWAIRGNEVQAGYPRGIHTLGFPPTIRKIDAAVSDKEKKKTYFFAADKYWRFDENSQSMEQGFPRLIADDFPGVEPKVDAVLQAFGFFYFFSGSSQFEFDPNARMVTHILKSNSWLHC
T1 sequence (P39900 106-470): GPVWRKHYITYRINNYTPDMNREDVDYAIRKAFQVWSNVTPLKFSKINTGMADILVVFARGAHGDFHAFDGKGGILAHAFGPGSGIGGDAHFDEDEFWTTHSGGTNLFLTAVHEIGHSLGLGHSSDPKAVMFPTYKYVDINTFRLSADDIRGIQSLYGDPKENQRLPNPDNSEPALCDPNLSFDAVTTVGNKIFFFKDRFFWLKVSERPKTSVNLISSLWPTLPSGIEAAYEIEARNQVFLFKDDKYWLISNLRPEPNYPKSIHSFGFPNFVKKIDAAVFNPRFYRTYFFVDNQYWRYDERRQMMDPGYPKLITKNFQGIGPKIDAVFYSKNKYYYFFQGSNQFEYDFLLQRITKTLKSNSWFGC
T3 sequence (P51512 120-607): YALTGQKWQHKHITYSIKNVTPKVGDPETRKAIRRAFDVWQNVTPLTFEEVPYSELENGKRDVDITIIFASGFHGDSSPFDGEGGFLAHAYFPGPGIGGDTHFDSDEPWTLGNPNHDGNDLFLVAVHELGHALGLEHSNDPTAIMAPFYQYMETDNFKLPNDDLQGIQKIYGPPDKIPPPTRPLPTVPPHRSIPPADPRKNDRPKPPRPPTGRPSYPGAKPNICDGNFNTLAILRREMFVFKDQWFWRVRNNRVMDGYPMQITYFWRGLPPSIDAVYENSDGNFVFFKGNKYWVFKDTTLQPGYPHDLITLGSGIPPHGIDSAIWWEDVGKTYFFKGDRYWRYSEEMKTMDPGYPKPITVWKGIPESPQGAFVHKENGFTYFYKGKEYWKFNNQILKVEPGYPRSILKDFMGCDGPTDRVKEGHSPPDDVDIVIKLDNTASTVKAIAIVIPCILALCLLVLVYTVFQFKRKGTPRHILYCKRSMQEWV

For `O=C(O)[C@@H]1[C@@H](Cn2nnc3ccccc3c2=O)CC[C@H]1C(=O)c1ccc(OCC2CCOCC2)cc1` (stereo in doubt) [Example 2, (+)-(1RS,2SR,5RS)-2-[(4-Oxo-1,2,3-benzotriazin-3(4H)-yl)methyl]-5-[4-(tetrahydro-2H-pyran-4-ylmethoxy)benzoyl]cyclopentanecarboxylic acid], the IC50 in test [1] (setting [2]) worked out at 0.071 nM; in test [1] (setting [3]) it was 0.071 nM; at MMP-10 it was 80 nM; against MMP-16 it was 550 nM; against mouse MMP-7, 52 nM.
With `O=C(O)[C@@H]1[C@@H](Cn2nnc3ccccc3c2=O)CC[C@H]1C(=O)c1ccc(OCCC2CCOCC2)cc1` (single isomer, unassigned) [Example 5, (+)-(1RS,2SR,5RS)-2-[(4-Oxo-1,2,3-benzotriazin-3(4H)-yl)methyl]-5-{4-[2-(tetrahydro-2H-pyran-4-yl)ethoxy]benzoyl}cyclopentanecarboxylic acid], the IC50 was found to be 0.085 nM in test [1] (setting [2]); 0.085 nM in test [1] (setting [3]); 13 nM on MMP-10; 940 nM on MMP-16; 130 nM at mouse MMP-7.
For the compound `O=C(O)[C@@H]1[C@@H](Cn2nnc3ccc(C(F)(F)F)cc3c2=O)CC[C@H]1C(=O)c1ccc(OCCC2CCOCC2)cc1` (single isomer, unassigned) [Example 11, (+)-(1RS,2SR,5RS)-2-{[4-Oxo-6-(trifluoromethyl)-1,2,3-benzotriazin-3(4H)-yl]methyl}-5-{4-[2-(tetrahydro-2H-pyran-4-yl)ethoxy]benzoyl}cyclopentanecarboxylic acid], the IC50 was found to be 0.19 nM in test [1] (setting [2]); 0.19 nM in test [1] (setting [3]); 18 nM against MMP-10; 3800 nM on MMP-16; 210 nM against mouse MMP-7.
“(+)-(1RS,2SR,5RS)-2-{[4-Oxo-6-(trifluoromethyl)-1,2,3-benzotriazin-3(4H)-yl]methyl}-5-[4-(tetra-hydro-2H-pyran-4-ylmethoxy)benzoyl]cyclopentanecarboxylic acid [Example 8]”: the IC50 in test [1] (setting [2]) stood at 0.016 nM; in test [1] (setting [3]), 0.016 nM; against MMP-10 it was 12 nM; against MMP-16, 280 nM.
Consider `O=C(O)[C@H]1[C@H](Cn2nnc3ccccc3c2=O)CC[C@@H]1C(=O)c1ccc(OCC2CCOCC2)cc1` (stereo in doubt) [Example 1, (+/−)-(1RS,2SR,5RS)-2-[(4-Oxo-1,2,3-benzotriazin-3(4H)-yl)methyl]-5-[4-(tetrahydro-2H-pyran-4-ylmethoxy)benzoyl]cyclopentanecarboxylic acid], for which the IC50 in test [1] (setting [2]) turned out to be 0.04 nM; in test [1] (setting [3]) it was 0.04 nM; at MMP-10 it was 120 nM; against MMP-16 it was 1500 nM; against mouse MMP-7 it was 85 nM.
In the case of `O=C(O)[C@H]1[C@H](Cn2nnc3ccc(C(F)(F)F)cc3c2=O)CC[C@@H]1C(=O)c1ccc(OCC2CCOCC2)cc1` (racemic) [Example 7, (+/−)-(1RS,2SR,5RS)-2-{[4-Oxo-6-(trifluoromethyl)-1,2,3-benzotriazin-3(4H)-yl]methyl}-5-[4-(tetrahydro-2H-pyran-4-ylmethoxy)benzoyl]cyclopentanecarboxylic acid], the figures for the IC50 (in test [1] (setting [3]); at MMP-10; against MMP-16) were 0.031 nM, 11000 nM and 830 nM, respectively.
With `O=C(O)[C@H]1[C@H](Cn2nnc3ccccc3c2=O)CC[C@@H]1C(=O)c1ccc(OCCC2CCOCC2)cc1` (stereo in doubt) [Example 4, (+/−)-(1RS,2SR,5RS)-2-[(4-Oxo-1,2,3-benzotriazin-3(4H)-yl)methyl]-5-{4-[2-(tetrahydro-2H-pyran-4-yl)ethoxy]benzoyl}cyclopentanecarboxylic acid], the IC50 in test [1] (setting [2]) was found to be 0.37 nM; in test [1] (setting [3]), 0.37 nM; against MMP-10, 170 nM; at MMP-16 it was 7100 nM; against mouse MMP-7, 1400 nM.
As for `O=C(O)[C@H]1[C@H](Cn2nnc3ccc(C(F)(F)F)cc3c2=O)CC[C@@H]1C(=O)c1ccc(OCCC2CCOCC2)cc1` (stereo in doubt) [Example 10, (+/−)-(1RS ,2S R,5RS)-2-{[4-Oxo-6-(trifluoromethyl)-1,2,3-benzotriazin-3(4H)-yl]methyl}-5-{4-[2-(tetrahydro-2H-pyran-4-yl)ethoxy]benzoyl}cyclopentanecarboxylic acid], the IC50 amounted to 0.021 nM in test [1] (setting [3]), 5100 nM against MMP-10, 1800 nM against MMP-16 and 130 nM at mouse MMP-7.
For `Cc1ccc2nnn(C[C@H]3CC[C@@H](C(=O)c4ccc(OCCC5CCOCC5)cc4)[C@@H]3C(=O)O)c(=O)c2c1` (single isomer, unassigned) [Example 20, (+)-(1RS,2SR,5RS)-2-[(6-Methyl-4-oxo-1,2,3-benzotriazin-3(4H)-yl)methyl]-5-{4-[2-(tetrahydro-2H-pyran-4-yl)ethoxy]benzoyl}cyclopentanecarboxylic acid], the IC50 in test [1] (setting [2]) is 0.053 nM; in test [1] (setting [3]), 0.053 nM; at MMP-10, 31 nM; at MMP-16 it was 3100 nM; against mouse MMP-7, 200 nM.
As to `O=C(O)[C@@H]1[C@@H](Cn2nnc3ccc(C(F)(F)F)cc3c2=O)CC[C@H]1C(=O)c1ccc(SCC2CCOCC2)cc1` (single isomer, unassigned) [Example 15, (+)-(1RS,2SR,5RS)-2-{[4-Oxo-6-(trifluoromethyl)-1,2,3-benzotriazin-3(4H)-yl]methyl}-5-{4-[(tetrahydro-2H-pyran-4-ylmethyl)sulphanyl]benzoyl}cyclopentanecarboxylic acid], the IC50 worked out at 0.026 nM in test [1] (setting [2]), 0.026 nM in test [1] (setting [3]), 9 nM against MMP-10 and 760 nM on MMP-16.

For the origin of these results see patent US20170114049A1, “2,5-DISUBSTITUTED CYCLOPENTANE CARBOXYLIC ACIDS FOR THE TREATMENT OF RESPIRATORY TRACT DISEASES” (BAYER PHARMA AKTIENGESELLSCHAFT, priority 2014, published 2017).
